ChEMBL document CHEMBL5126639, “Semisynthesis and Evaluation of Anti-Inflammatory Activity of the Cassane-Type Diterpenoid Taepeenin F and of Some Synthetic Intermediates” (J Nat Prod, 2022)
pIC50: −log10 of the molar value. Each block holds one molecule with its values, some of them ahead of it. Active and inactive are the calls of the source. The rule behind the calls is not given here.

Experiments:
RAW264.7 [1] = assay: Anti-inflammatory activity against mouse RAW264.7 cells assessed as inhibition of LPS-induced NO production after 24 hrs by griess reagent assay; format: functional, cell-based; conditions: RAW264.7, 24 h
HT-29 = assay: Antiproliferative activity against human HT-29 cells assessed as reduction in cell viability after 72 hrs by MTT assay; format: functional, cell-based; conditions: HT-29, 72 h
RAW264.7 [2] = assay: Anti-inflammatory activity against mouse RAW264.7 cells assessed as inhibition of LPS-induced NO production at 0.25 times of IC50 concentration after 24 to 72 hrs by griess reagent assay relative to control; format: functional, cell-based; conditions: time 24-72 hrs
B16-F10 [3] = assay: Induction of cell cycle arrest in mouse B16-F10 cells assessed as cells accumulation at G2/M phase at IC80 concentration after 72 hrs by propidium iodide staining based flow cytometric analysis (reference value: 3.16%); format: functional
B16-F10 [4] = assay: Induction apoptosis in mouse B16-F10 cells assessed as necrotic cells at IC50 concentration after 48 hrs by AnnexinV/propidium iodide staining based flow cytometric analysis (reference value: 8.2%); format: functional
B16-F10 [5] = assay: Induction of cell cycle arrest in mouse B16-F10 cells assessed as cells accumulation at S phase at IC50 concentration after 72 hrs by propidium iodide staining based flow cytometric analysis (reference value: 39.21%); format: functional
B16-F10 [6] = assay: Induction apoptosis in mouse B16-F10 cells assessed as necrotic cells at IC50 concentration after 72 hrs by AnnexinV/propidium iodide staining based flow cytometric analysis (reference value: 9.9%); format: functional
B16-F10 [7] = assay: Induction apoptosis in mouse B16-F10 cells assessed as necrotic cells at IC80 concentration after 48 hrs by AnnexinV/propidium iodide staining based flow cytometric analysis (reference value: 8.2%); format: functional
[8] = Inhibition of LPS-induced cell cycle arrest in mouse RAW264.7 cells assessed as cell accumulation at G2/M phase at 0.25 to 0.75 IC50 concentration after 72 hrs by propidium iodide staining based flow cytometric analysis relative to control; format: functional; set-up: scale not given: the % may be the effect or the level left
B16-F10 [9] = assay: Induction apoptosis in mouse B16-F10 cells assessed as early apoptotic cells at IC50 concentration after 72 hrs by AnnexinV/propidium iodide staining based flow cytometric analysis (reference value: 0.1%); format: functional
B16-F10 [10] = assay: Induction apoptosis in mouse B16-F10 cells assessed as increase in apoptotic cells at IC50 to IC80 concentration after 48 to 72 hrs by AnnexinV/propidium iodide staining based flow cytometric analysis; format: functional, cell-based; conditions: time 48-72 hrs, DDE = dose-dependent effect
B16-F10 [11] = assay: Induction apoptosis in mouse B16-F10 cells assessed as viable cells at IC80 concentration after 72 hrs by AnnexinV/propidium iodide staining based flow cytometric analysis (reference value: 87.8%); format: functional
HepG2 = assay: Antiproliferative activity against human HepG2 cells assessed as reduction in cell viability after 72 hrs by MTT assay; format: functional, cell-based
[12] = Inhibition of LPS-induced cell cycle arrest in mouse RAW264.7 cells assessed as cell accumulation at G0/G1 phase at 0.25 to 0.75 IC50 concentration after 72 hrs by propidium iodide staining based flow cytometric analysis relative to control; format: functional; set-up: scale not given: the % may be the effect or the level left
B16-F10 [13] = assay: Induction apoptosis in mouse B16-F10 cells assessed as viable cells at IC50 concentration after 48 hrs by AnnexinV/propidium iodide staining based flow cytometric analysis (reference value: 86.9%); format: functional
B16-F10 [14] = assay: Induction of cell cycle arrest in mouse B16-F10 cells assessed as cells accumulation at G2/M phase at IC50 concentration after 72 hrs by propidium iodide staining based flow cytometric analysis (reference value: 3.16%); format: functional
RAW264.7 [15] = assay: Inhibition of LPS-induced cell differentiation in mouse RAW264.7 cells at 0.25 to 0.75 IC50 concentration after 72 hrs by propidium iodide staining based flow cytometric analysis; format: functional; conditions: DDE = dose-dependent effect
Plasmodium falciparum = assay: Antimalarial activity against Plasmodium falciparum FCR-3/A2 erythrocytic stage infected in human erythrocytes assessed as reduction in parasite growth after 48 hrs by Giemsa staining based assay; format: functional, organism-based; conditions: FCR-3/A2, Erythrocyte
RAW264.7 [16] = assay: Anti-inflammatory activity against mouse RAW264.7 cells assessed as inhibition of LPS-induced NO production after 48 hrs by griess reagent assay; format: functional, cell-based; conditions: RAW264.7, 48 h
[17] = Inhibition of LPS-induced cell cycle arrest in mouse RAW264.7 cells assessed as cell accumulation at S phase at 0.25 to 0.75 IC50 concentration after 72 hrs by propidium iodide staining based flow cytometric analysis relative to control; format: functional; set-up: scale not given: the % may be the effect or the level left
B16-F10 [18] = assay: Induction apoptosis in mouse B16-F10 cells assessed as viable cells at IC80 concentration after 48 hrs by AnnexinV/propidium iodide staining based flow cytometric analysis (reference value: 86.9%); format: functional

pIC50 (RAW264.7 [1]): 4.60
SMILES: CC(=O)O[C@H]1[C@@H]2OC(=O)[C@@H]3c4ccoc4C[C@@H]([C@@H]23)[C@@]2(C)[C@@H](O)CCC(C)(C)[C@]12O

SMILES: COC(=O)[C@]1(C)CCC[C@]2(C)c3cc(O)c(C(C)C)c(C)c3CC[C@@H]12
pIC50 (HT-29): 3.65
inhibition (RAW264.7 [2]): Active

SMILES: COC(=O)[C@]1(C)CCC[C@]2(C)c3cc(O)c(CO)c(C)c3CC[C@@H]12
inhibition (RAW264.7 [2]): Active

pIC50 (RAW264.7 [1]): 4.60
SMILES: CC(=O)O[C@H]1CCC(C)(C)[C@]2(O)[C@@H](OC(C)=O)[C@@H]3OC(=O)[C@@H]4c5ccoc5C[C@@H]([C@@H]34)[C@@]12C [CAESALPININ D]

SMILES: COC(=O)[C@]1(C)CCC[C@@]2(C)[C@H]1CC=C1C(C)=C(C(C)C)C(=O)C[C@@H]12
Activity (B16-F10 [3]): 1.22%
inhibition (RAW264.7 [2]): Active
Activity (B16-F10 [4]): 2.7%
Activity (B16-F10 [5]): 38.83%
Activity (B16-F10 [6]): 3.8%
Activity (B16-F10 [7]): 2.8%
Activity [8]: 0.3%
Activity (B16-F10 [9]): 0.1%
Activity (B16-F10 [10]): Dde
Activity (B16-F10 [11]): 47.5%
IC80 (HepG2): 72.4 µM
Activity [12]: 68%
Activity (B16-F10 [13]): 84.1%
Activity (B16-F10 [14]): 1.12%
inhibition (RAW264.7 [15]): Dde

SMILES: CC(=O)O[C@H]1CC(C)(C)[C@]2(O)CCc3c(cc(O)c(C=O)c3C)[C@@]2(C)[C@H]1OC(C)=O [NORCAESALPININ C]
pIC50 (Plasmodium falciparum): 5.30

SMILES: COC(=O)[C@]1(C)CCC[C@]2(C)c3cc4c(c(C)c3CC[C@@H]12)CC(=O)O4
inhibition (RAW264.7 [2]): Active

pIC50 (RAW264.7 [16]): 5.54
SMILES: C[C@H]1c2ccoc2C[C@H]2[C@H]1[C@H]1O[C@H]1[C@@]1(O)C(C)(C)[C@@H](OC(=O)c3ccccc3)CC[C@]21C

SMILES: COC(=O)[C@]1(C)CCC[C@]2(C)c3cc(O)c(C=O)c(C)c3CC[C@@H]12
Activity (B16-F10 [3]): 0%
Activity [17]: 69%
inhibition (RAW264.7 [2]): Active
Activity (B16-F10 [4]): 2.8%
Activity (B16-F10 [6]): 0.9%
Activity (B16-F10 [7]): 2.2%
Activity [8]: 0.3%
Activity (B16-F10 [10]): Dde
Activity (B16-F10 [11]): 57.9%
Activity [12]: 68%
Activity (B16-F10 [14]): 0.18%
inhibition (RAW264.7 [15]): Dde
Activity (B16-F10 [18]): 64.9%
